Assay results taken from patent US20190209501A1, “COMPOSITIONS AND METHODS OF USE OF BETA-HYDROXY-BETA-METHYLBUTYRATE (HMB) […] IN[…]” (Texas Tech University Office of Research Commercialization, priority 2018, published 2019).

Experiment: Resting energy expenditure and substrate utilization (RQ) via indirect calorimetry
Type: in vivo, human
Conditions: for RMR Δ / RMR Δ (%) / RQ Δ / RQ Δ (%): baseline to W 8; for RMR ES (d) / RQ ES (d): effect size
Protocol: REE and substrate utilization were assessed via indirect calorimetry (TrueOne 2400. ParvoMedics, Sandy, Utah, USA). Gas and flow calibrations were performed each morning according to manufacturer specifications, and the pre-assessment procedures of Compher et al. (34) were utilized. Participants were instructed to remain motionless but awake during the assessment, which took place in a climate-controlled room with the lights dimmed. The first five minutes of each test were discarded, and the assessment continued until there was a period of 5 consecutive minutes with a coefficient of variation (CV) for REE of ≤5%. The average CV for REE in the present study was 3.2±1.1% (mean±SD).

SMILES: CC(C)(O)CC(=O)O [TRFHMB, β-hydroxy-β-methylbutyrate]
- RMR (ITT, Baseline): 1466 ± 48 kcal/day
- RQ (ITT, Baseline): 0.82 ± 0.02 au
- RMR (ITT, W 8): 1481 ± 44 kcal/day
- RMR Δ (ITT): 15 kcal/day
- RMR Δ (%) (ITT): 1%
- RQ Δ (ITT): −0.03 au
- RQ Δ (%) (ITT): −4%
- RMR ES (d) (ITT): 0.09
- RQ ES (d) (ITT): −0.42
- RMR (PP, Baseline): 1472 ± 61 kcal/day
- RQ (PP, Baseline): 0.81 ± 0.03 au
- RMR (PP, W 8): 1519 ± 57 kcal/day
- RQ (PP, W 8): 0.78 ± 0.02 au
- RMR Δ (PP): 47 kcal/day
- RMR Δ (%) (PP): 3%
- RQ Δ (PP): −0.03 au
- RQ Δ (%) (PP): −4%
- RMR ES (d) (PP): 0.30
- RQ ES (d) (PP): −0.44
- Resting metabolic rate change (versus baseline): +47 kcal/d
- Resting metabolic rate change (%) (versus baseline): 3%
